{
  "source": "patent EP0987025A1",
  "about": "“Pharmaceitical composition or composition package containing a pyrimidine nucleoside analogue and a purine nucleoside analogue” (priority 1998, dated 2000)",
  "key": {"BM5d proviral DNA": {"test_system": "BM5d proviral DNA", "assay": "PCR analysis of BM5d proviral DNA in spleen, lymph node and bone marrow", "type": "in vivo, C57BL/6 mice", "conditions": "for % of inhibition of BM5d proviral DNA, Bonemarrow / % of inhibition of BM5d proviral DNA, Lymphnode / % of inhibition of BM5d proviral DNA, Spleen: after 7 weeks of infection", "excerpt": "The following oligonucleotide primers were used for the amplification of a 141-bp gag gene of defective virus genome (BM5d); 5' primer, 5'-AACCTTCCTCCTCTGCCA-3' (sense) corresponding to nucleotides 1456-1473 and 3' primer, 5'-ACCACCTCTCGGGCTTTC-3' (antisense) corresponding to nucleotides 1579-1596 of the BM5d genome (Chat topadhyay SK, Sengupta D.N., FredricksonT.N., Morse H.C. III, Hartley J.W., \"Characteristics and contributions of defective, ecotropic and mink cell focus-inducing viruses in a retrovirus induced immunodeficiency syndrome of mice.\", J..Virol. 1991; 65: 4232-41.). A second pair or oligonucleotide primers was used for amplification of 203-bp of the mouse glucose-6-phosphate dehydrogenase (G6PD) gene. This amplification served as an internal control (endogenous standard) for evaluation of the relative BM5d proviral DNA. The nucleotide primers for the amplification were as follows: 5' primer, 5'-[…]-3' (sense) and 3' primer, 5'-[…]-3' (antisense) (Kurdi-Haidar B., Mason P.J., Berrebi A., et al., \"Origin and spread of the glucose-6-phosphate dehydrogenase variant (G6PD-Mediterranean) in the Middle East.\", Am. J. Hum. Genet. 1990; 47:1013-19.).\nProbe D30, which was derived from the 137-bp Smal-Xhol p12 gag fragment of the defective virus genome (DU5H), was kindly provided by P. Jolicoeur (Montreal, Canada) (Aziz D.C., Hanna Z., Jolicoeur P., \"Severe immunodeficiency disease induced by a defective murine leukemia virus.\", Nature 1989; 338: 505-08).\nTotal cellular DNA was isolated from the spleens, lymph nodes and bone marrow of uninfected, infected and infected/treated mice by the sodium iodide isopropanol method.\nPCR amplifications were performed in a 25 µl final volume using the Perkin Elmer GeneAMP kit (1 mM MgCl2, 2.5 U AmpliTag) with 0.3 µg total cellular DNA and 20 pmol of each primer.\nPCR reaction were carried out for 37 cycles at 95°C for 30 sec, 58°C for 30 sec and 72°C for 30 sec with a final extension at 72°C for 10 min.\nProducts were analyzed by electrophoresis on agarose gel, blotted and hybridized with either the ^32P-labeled D30 or G6PD probe.\nThe intensity of radiolabeled bands was analyzed and quantified in a GS-250 Molecular Imager™ (Bio-Rad, Hercules, CA, USA). For BM5d proviral DNA detection the relative integration was determined by dividing the intensity of the BM5d bands by the intensity of G6PD bands (Fraternale A., Casabianca A., Rossi L., et al., \"Inhibition of murine AIDS by combination of AZT and dideoxycytidine 5'-triphosphate.\", J. Acquir. Imm. Def Syndr. and Hum. Retrovir. 1996; 12:164-73). The percentages of inhibition were referred to the infected mice."}, "LP-BM5": {"test_system": "LP-BM5", "assay": "Serum IgG by ELISA (hypergammaglobulinemia) in LP-BM5 infected mice", "type": "in vivo, C57BL/6 mice", "conditions": "about 4 months from infection", "method": "Serum IgG levels were determined using an ELISA technique. Briefly, polyvinylchloride microtiter plates (Immulon I; Dynatech Laboratories, Chantilly, VA) were coated with goat anti mouse IgG (Sigma) diluted in 0.135 M sodium chloride for ≥ 24 hr. After four washes with 0.1% tween PBS (TPBS), the plates were blocked with 5% bovin serum albumin (BSA) in PBS for 1 h at 37°C and washed again with TPBS. Serial dilutions of mouse serum were added and after incubation for 1 h at 37°C, the plates were washed four times with TPBS, and 100 µl of horseradish (HRP)-conjugated goat anti-mouse IgG (Bio-Rad, Richmond, CA) was added. After 1 h incubation at 37°C, serum levels were determined using a color development solution containing 2.2 mM O-Phenylenediamine. Absorbance was measured at 492 nm on Model 2550 EIA READER (BIO-RAD). Absolute serum IgG concentrations were obtained using known concentrations of standard mouse IgG.\nFirst, the efficacy of 2-fluoro-ara-AMP (F-araAMP, Fludara) in inhibiting murine AIDS (MAIDS), a disease characterized by a lymphoproliferative disorder (lymphadenopathy and splenomegaly), associated with severe immunodeficiency and hypergammaglobulinemia, was evaluated. The disease develops in some strains of mice (C57BL/6) that are infected with a murine leukemia virus mixture termed LP-BM5. In the first preliminary experiments (after about 4 months from infection) LP-BMS infected animals were treated with three different concentrations of F-ara-AMP: 0.065 mg/mouse, 0.325 mg/mouse, 0.650 mg/mouse. The animals of each group were treated intraperitoneally for 3 days a week and for 3 weeks. At the end of the treatment animals were killed and splenomegaly, lymphadenopathy and hypergammaglobulinemia were evaluated."}, "[1]": {"conditions": "group a: 3.0 mg i.p. once a day for 5 consecutive days, 4 weeks"}, "[2]": {"conditions": "group b: 3.0 mg i.p. twice a day for 5 consecutive days, 4 weeks"}, "[3]": {"conditions": "group c: 10 mg in drinking water for 5 consecutive days, 4 weeks"}, "[4]": {"conditions": "group d: 15 mg in drinking water for 5 consecutive days, 4 weeks"}, "[5]": {"conditions": "treatment c: after 6 weeks of infection 3 mg F-ara-AMP i.p. twice a day, 5 consecutive days, 4 weeks, at 10 weeks after infection"}, "[6]": {"conditions": "treatment g: after 6 weeks of infection 3 mg F-ara-AMP i.p. twice a day 4 weeks, then interrupted, at 15 weeks after infection"}},
  "data": [
    {"smiles": "Nc1nc(F)nc2c1ncn2[C@@H]1O[C@H](COP(=O)(O)O)[C@@H](O)[C@@H]1O", "note": "[F-ara-AMP, Fludarabine phosphate]", "values": [
      {"measurement": "% of inhibition of BM5d proviral DNA, Bonemarrow", "setting": "BM5d proviral DNA; [1]", "value": 0, "unit": "%"},
      {"measurement": "% of inhibition of BM5d proviral DNA, Lymphnode", "setting": "BM5d proviral DNA; [1]", "value": "19.76±11.10", "unit": "%"},
      {"measurement": "% of inhibition of BM5d proviral DNA, Spleen", "setting": "BM5d proviral DNA; [1]", "value": "25.74±17.54", "unit": "%"},
      {"measurement": "% of inhibition of BM5d proviral DNA, Bonemarrow", "setting": "BM5d proviral DNA; [2]", "value": "22.94±7.40", "unit": "%"},
      {"measurement": "% of inhibition of BM5d proviral DNA, Lymphnode", "setting": "BM5d proviral DNA; [2]", "value": "54.63±13.12", "unit": "%"},
      {"measurement": "% of inhibition of BM5d proviral DNA, Spleen", "setting": "BM5d proviral DNA; [2]", "value": "39.85±16.70", "unit": "%"},
      {"measurement": "% of inhibition of BM5d proviral DNA, Bonemarrow", "setting": "BM5d proviral DNA; [3]", "value": "28.05±8.84", "unit": "%"},
      {"measurement": "% of inhibition of BM5d proviral DNA, Lymphnode", "setting": "BM5d proviral DNA; [3]", "value": "30.33±19.67", "unit": "%"},
      {"measurement": "% of inhibition of BM5d proviral DNA, Spleen", "setting": "BM5d proviral DNA; [3]", "value": "15.16±11.46", "unit": "%"},
      {"measurement": "% of inhibition of BM5d proviral DNA, Bonemarrow", "setting": "BM5d proviral DNA; [4]", "value": "21.69±9.02", "unit": "%"},
      {"measurement": "% of inhibition of BM5d proviral DNA, Lymphnode", "setting": "BM5d proviral DNA; [4]", "value": "12.16±5.48", "unit": "%"},
      {"measurement": "% of inhibition of BM5d proviral DNA, Spleen", "setting": "BM5d proviral DNA; [4]", "value": "27.40±8.47", "unit": "%"},
      {"measurement": "bone marrow, BM5d proviral DNA copy number (E)", "setting": "BM5d proviral DNA; [5]", "value": "19,750±1,485 Proviral DNA molecules per 0.3 µg of total cellular DNA"},
      {"measurement": "bone marrow, inhibition of BM5d (% vs. Infected) (F)", "setting": "BM5d proviral DNA; [5]", "value": "30.32±5.24", "unit": "%"},
      {"measurement": "lymph node, BM5d proviral DNA copy number (C)", "setting": "BM5d proviral DNA; [5]", "value": "49,500±7758 Proviral DNA molecules per 0.3 µg of total cellular DNA"},
      {"measurement": "lymph node, inhibition of BM5d (% vs. Infected) (D)", "setting": "BM5d proviral DNA; [5]", "value": "77.46±3.53", "unit": "%"},
      {"measurement": "spleen, BM5d proviral DNA copy number (A)", "setting": "BM5d proviral DNA; [5]", "value": "37,900±15,717 Proviral DNA molecules per 0.3 µg of total cellular DNA"},
      {"measurement": "spleen, inhibition of BM5d (% vs. Infected) (B)", "setting": "BM5d proviral DNA; [5]", "value": "74.27 ± 10.67", "unit": "%"},
      {"measurement": "bone marrow, BM5d proviral DNA copy number (E)", "setting": "BM5d proviral DNA; [6]", "value": "33,900±3,736 Proviral DNA molecules per 0.3 µg of total cellular DNA"},
      {"measurement": "lymph node, BM5d proviral DNA copy number (C)", "setting": "BM5d proviral DNA; [6]", "value": "180,000±8,544 Proviral DNA molecules per 0.3 µg of total cellular DNA"},
      {"measurement": "lymph node, inhibition of BM5d (% vs. Infected) (D)", "setting": "BM5d proviral DNA; [6]", "value": "34.00±3.13", "unit": "%"},
      {"measurement": "spleen, BM5d proviral DNA copy number (A)", "setting": "BM5d proviral DNA; [6]", "value": "135,000±47,444 Proviral DNA molecules per 0.3 µg of total cellular DNA"},
      {"measurement": "spleen, inhibition of BM5d (% vs. Infected) (B)", "setting": "BM5d proviral DNA; [6]", "value": "31.47±24.08", "unit": "%"},
      {"measurement": "Hyperg. (% inh.)", "setting": "LP-BM5; 0.065 mg/mouse i.p. 3 days a week for 3 weeks", "value": "12±10", "unit": "%"},
      {"measurement": "Hyperg. (% inh.)", "setting": "LP-BM5; 0.325 mg/mouse i.p. 3 days a week for 3 weeks", "value": "16±7", "unit": "%"},
      {"measurement": "Hyperg. (% inh.)", "setting": "LP-BM5; 0.650 mg/mouse i.p. 3 days a week for 3 weeks", "value": "19±4", "unit": "%"}
    ]}
  ]
}
